Reference: ChEMBL document CHEMBL1201862, “PubChem BioAssay data set” (2004)
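96-well plates; 48 h exposure; 5 concentrations. Endpoints by linear interpolation between flanking doses. Not reached: highest tested concentration assigned. GI50 = concentration required for 50% inhibition of growth.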 Active and inactive are the calls of the source. Cut-off read from the data, not from the text of the source: active = GI50 up to about 1.1 µM and inactive = higher.

How the values were obtained:
Assay in all cases: DTP human tumour cell line panel, 48 h
A549 = test system: A549
HCC 2998 = test system: HCC 2998
HOP-62 = test system: HOP-62
HT-29 = test system: HT-29
K562 = test system: K562
KM12 = test system: KM12
MDA-MB-435 = test system: MDA-MB-435
Malme-3M = test system: Malme-3M
NCI-H226 = test system: NCI-H226
NCI-H522 = test system: NCI-H522
NCI/ADR-RES = test system: NCI/ADR-RES
OVCAR-3 = test system: OVCAR-3
OVCAR-8 = test system: OVCAR-8
PC-3 = test system: PC-3
SF-268 = test system: SF-268
SF-295 = test system: SF-295
SK-MEL-2 = test system: SK-MEL-2
SNB-19 = test system: SNB-19
COLO 205 = test system: COLO 205
HL-60 = test system: HL-60

| Structure (SMILES) | GI50 (A549) | GI50 (HCC 2998) | GI50 (HOP-62) | GI50 (HT-29) | GI50 (K562) | GI50 (KM12) | GI50 (MDA-MB-435) | GI50 (Malme-3M) | GI50 (NCI-H226) | GI50 (NCI-H522) | GI50 (NCI/ADR-RES) | GI50 (OVCAR-3) | GI50 (OVCAR-8) | GI50 (PC-3) | GI50 (SF-268) | GI50 (SF-295) | GI50 (SK-MEL-2) | GI50 (SNB-19) | GI50 (COLO 205) | GI50 (HL-60) |
| --- | --- | --- | --- | --- | --- | --- | --- | --- | --- | --- | --- | --- | --- | --- | --- | --- | --- | --- | --- | --- |
| O=[N+]([O-])c1ccc(Nc2nc3ccccc3s2)cc1 | 47.6 µM (inactive) | 25.2 µM (inactive) | 29.2 µM (inactive) | 34.6 µM (inactive) | 12.2 µM (inactive) | 51.6 µM (inactive) | 37.9 µM (inactive) | 15.9 µM (inactive) | 63 µM (inactive) | 14.4 µM (inactive) | 34.9 µM (inactive) | 18.7 µM (inactive) | 40.7 µM (inactive) | 16.3 µM (inactive) | 26.3 µM (inactive) | 37.6 µM (inactive) | 25.5 µM (inactive) | 38.5 µM (inactive) |  |  |
| O=C(NCCCNC(=O)c1ccc2cc(O)c(O)cc2c1)c1ccc2cc(O)c(O)cc2c1 | 69.8 µM (inactive) | 18.6 µM (inactive) | 25.1 µM (inactive) | 23.4 µM (inactive) | 33.7 µM (inactive) | 37.9 µM (inactive) | 32.4 µM (inactive) | 28.6 µM (inactive) | 18.4 µM (inactive) | 29.6 µM (inactive) | > 100 µM (inactive) |  | 35.2 µM (inactive) | 27.4 µM (inactive) | 28.8 µM (inactive) |  | 13.1 µM (inactive) | 18.3 µM (inactive) | 30.7 µM (inactive) | 19.2 µM (inactive) |
| CCCOC(=O)CCC(NC(=O)c1ccc(Nc2nc3ccccc3nc2-c2cccs2)cc1)C(=O)OCCC (configuration not stated) | > 100 µM (inactive) | 95.5 µM (inactive) | > 100 µM (inactive) |  | > 100 µM (inactive) | > 100 µM (inactive) |  | 19.1 µM (inactive) | > 100 µM (inactive) | > 100 µM (inactive) |  | > 100 µM (inactive) | > 100 µM (inactive) |  | > 100 µM (inactive) | > 100 µM (inactive) | 24.8 µM (inactive) | > 100 µM (inactive) | > 100 µM (inactive) |  |
| Nc1nc(=S)[nH]c2nc3c(c(-c4ccccc4)c12)CCCC3 | > 100 µM (inactive) |  | > 100 µM (inactive) | > 100 µM (inactive) | > 100 µM (inactive) | > 100 µM (inactive) | > 100 µM (inactive) | > 100 µM (inactive) |  |  | > 100 µM (inactive) | > 100 µM (inactive) | > 100 µM (inactive) | > 100 µM (inactive) | > 100 µM (inactive) | > 100 µM (inactive) |  | > 100 µM (inactive) | > 100 µM (inactive) | > 100 µM (inactive) |
| O=c1c2cc(I)ccc2nc(-c2cccs2)n1Nc1ccccc1 | 1.06 µM (active) | 16 µM (inactive) | 18.8 µM (inactive) | 3.21 µM (inactive) |  | 4.14 µM (inactive) | 0.649 µM (active) |  | 14.1 µM (inactive) | 0.849 µM (active) | 22.3 µM (inactive) | 1.16 µM (inactive) | 2.08 µM (inactive) | 1.61 µM (inactive) | 14.1 µM (inactive) | 0.383 µM (active) | 0.33 µM (active) | 23.5 µM (inactive) | 1.64 µM (inactive) | 0.416 µM (active) |
| CC1C/C(=C\c2ccc(O)c(O)c2)C(=O)/C(=C/c2ccc(O)c(O)c2)C1 (configuration not stated) | 13.4 µM (inactive) | 18.2 µM (inactive) | 11.3 µM (inactive) | 18 µM (inactive) | 5.83 µM (inactive) | 8.17 µM (inactive) | 2.83 µM (inactive) | 10.4 µM (inactive) | 2.86 µM (inactive) | 1.81 µM (inactive) | 18.5 µM (inactive) | 5.25 µM (inactive) | 9.04 µM (inactive) | 14 µM (inactive) | 6.12 µM (inactive) | 13.7 µM (inactive) | 6.97 µM (inactive) | 10.7 µM (inactive) | 16.9 µM (inactive) | 4.93 µM (inactive) |
| COc1ccc(NC2=NCCO2)c2ccccc12 | > 10 µM (inactive) | > 10 µM (inactive) | > 10 µM (inactive) | > 10 µM (inactive) | > 10 µM (inactive) | > 10 µM (inactive) | > 10 µM (inactive) | > 10 µM (inactive) | 3.03 µM (inactive) | > 10 µM (inactive) | > 10 µM (inactive) | > 10 µM (inactive) | > 10 µM (inactive) | > 10 µM (inactive) | > 10 µM (inactive) | > 10 µM (inactive) | > 10 µM (inactive) | > 10 µM (inactive) | > 10 µM (inactive) | > 10 µM (inactive) |
| O=Cc1c(Br)[nH]c2ccccc12 | > 100 µM (inactive) | > 100 µM (inactive) | > 100 µM (inactive) | > 100 µM (inactive) | > 100 µM (inactive) | > 100 µM (inactive) |  | > 100 µM (inactive) | > 58.3 µM (inactive) | 61.2 µM (inactive) | > 100 µM (inactive) | > 100 µM (inactive) | > 100 µM (inactive) |  | > 100 µM (inactive) | 75.2 µM (inactive) | 75.3 µM (inactive) |  | 97.9 µM (inactive) | 9.55 µM (inactive) |
